# According to US8097615B2, “Neurofibrillary labels” (Wista Laboratories Ltd., priority 2001, dated 2012):
# Entries after “also recorded” stand apart in the source; their conditions may differ. Read-outs that look alike come from different tables or passages of the source.
# Legend:
# tangle fragments = test: Competitive binding assay: displacement of primulin fluorescence from tangle fragments (ifI); parameters: species or system human; settings: for competition with / displacement of other ligands at tangles: fluorescence end point
# Protocol: IfI material was homogenised in a 0.2 ml glass homogeniser in PBS. To the suspension, test compounds were added to final concentrations ranging from 0.1% to 0.00001%. […] The suspensions were transferred to a glass slide, and examined by fluorescence microscopy across a range of fluorescence filter blocks, covering excitation and emission wavelengths between 380 nm and 570 nm. The end point sought in these observations was displacement of typical primulin fluorescence from tangle fragments.
# amyloid = test: Labelling / staining of amyloid deposits; assay type: binding
# tau-tau binding = target: T1, tau-tau binding (Homo sapiens, UniProt P10636); test: Solid-phase tau-tau binding assay (dGA solid phase, dGAE liquid phase), tau Preparation 2; assay type: biochemical; settings: for tau-tau binding relative to that seen in the absence of DMMB: tau typically 1 μM
# T1 construct: a truncated tau protein corresponding to the core fragment and terminating at Ala390-dGA; dGAE which terminates at Glu-391; made in house; host or cells: E. coli BL21 (DE3), pRK172; DE52 flow-through, P11 phosphocellulose, PEG concentration, no heat step (Preparation 2)
# Protocol: Preparation 2 differs from Preparation 1 above in the following respects: (1) The concentration of cells at the sonication stage is increased by 5-fold. (2) A batchwise adsorption of non-tau proteins to DE52 is included. (3) The proteins are not subjected to heat treatment. (4) The final step involves concentration using polyethylene glycol.
# Escherichia coli is grown in 2×TY medium (Oxoid) supplemented with ampicillin (50 micrograms per ml) to late-logarithmic phase. Cells from 5 liters of culture are harvested by centrifugation and the cell pellets frozen rapidly over liquid nitrogen. The pellets are taken up with 50 mM PIPES (pH 6.8) containing 1 mM EDTA, 1 mM dithiothreitol and 1 mM phenylmethylsulphonylfluoride (PMSF) and bacteria lysed by sonication (2×3 min) at 4 C. The mixture is centrifuged at 10,000 rpm for 20 min. The supernatant is rotated with 1 gram of Whatman DE52 for 3 hr at 4 C. The mixture is separated on a column and the flow-through material that fails to bind to DE52 is incubated for 3 hr at 4 C, with rotation, with 0.4 g of Whatman P11 (freshly regenerated according to manufacturer's recommendations). The column is washed with column buffer (50 mM PIPES, pH 6.8 containing 1 mM EGTA, 5 mM EDTA, 0.2 mM MgCl2, 5 mM β-mercaptoethanol and 1 mM PMSF). Tau protein is eluted stepwise with a 0.1 to 1 M gradient of KCl in column buffer. Fractions containing tau (determined by immunoassay) are pooled and dialysed against 80 mM PIPES (pH6.8) containing 1 mM EGTA, 1 mM MgCl2 and 5 mM β-mercatoethanol, using dialysis tubing with a molecular weight cut-off of 1,000. The dialysate is concentrated by applying polyethylene glycol 8000 to the outside of the sac for 2-3 hr. The final concentration of tau ranged from 3 to 10 mg per ml.
# When the proteins dGA and dGAE were prepared as indicated above (“Preparation 2”), the properties of the tau-tau binding assay were altered relative to the properties obtained using the preparative method described in WO96/30766 (“Preparation 1”).
# The assay is performed using 96 well PVC plates (Falcon Cat. No. 353912 are used), and the following steps:
# 1. 50 μl dGA (˜10 μg/ml) in carbonate buffer, incubate 1 h at 37° C.
# (Carbonate buffer: 50 mM carbonate bicarbonate, pH 9.6 (Na2CO3 1.59 g/l, NaHCO3 2.93 g/l))
# 2. Wash plate in 0.05% Tween-20.
# 3. 200 μl PBS+2% Marvel, incubate 1 h at 37° C.
# 4. Rinse plate 2× in deionised water, then wash in 0.05% Tween-20.
# 5. 50 μl dGAE (˜10 μg/ml) plus drug in PBS+1% fish skin gelatin+0.05% Tween-20, incubate 1 h at 37° C.
# 6. Wash plate in 0.05% Tween-20.
# 7. 50 μl antibody 423 (1:10 dilution in PBS+2% Marvel), incubate 1 h at 37° C.
# 8. Rinse plate 2× in deionised water, then wash in 0.05% Tween-20.
# 9. 50 μl HRP-anti-mouse (1:1000 dilution in PBS+0.05% Tween-20), incubate 1 h at 37° C.
# 10. Wash plate in 0.05% Tween-20, then rinse 1× with deionised water.
# 11. 50 μl substrate solution, read immediately initial rate over 2 min in plate reader at OD650.
# (Substrate solution: 50 mM sodium acetate, pH 5.0+TMB (1 ml/100 ml of a 10 mg/ml solution in DMSO)+H2O2 (10 μl/100 ml)).
# isolated PHFs = test: Ligand electronmicroscopy of Pronase-digested PHFs (gold-conjugated anti-biotin antibody); assay type: binding
# Protocol: (§1) In ifI suspensions such as this, tangles can be seen by blue fluorescence which is […] from that associated with binding of contaminants in the preparation. […] (a) Chemical labelling with the biotinylated benzothiazole analogue shown as 4b in FIG. 4. PHFs were deposited on a carbon-coated grid after Pronase digestion, and incubated briefly with compound 4b, and then incubated with an anti-biotin antibody preparation that had been conjugated with colloidal gold. […] (b) mAb 423 immunolabelling of isolated PHFs after Pronase digestion., followed by incubation with a gold-conjugated goat anti-mouse second antibody as described in Novak et al. 1993 (Novak M, Kabat J, Wischik C M (1993) “Molecular characterisation of the minimal protease-resistant tau unit of the Alzheimers' disease paired helical filament”, EMBO J. 12: 365-370). As shown in this paper, mAb 423 labels PHFs derived from intracellular tangles (which preserve N-terminal tau immunoreactivity in the fuzzy outer coat) poorly, but Pronase digested PHFs strongly.
# PHFs derived from an ifI fraction were deposited on a carbon coated grid after pronase digestion, and incubated briefly with a preparation of biotinylated Primulin, and then incubated with an anti-biotin antibody that has been conjugated with colloidal gold by the method of Slot and Gueze (1981).
# PHFs = test: Spectrofluorometry of primulin in solution and bound to PHFs (ifII); assay type: binding; settings: PHFs with bound primulin treated with the substance
# Protocol: These measurements were carried out in a Perkin-Elmer spectrofluorimeter (model MPF-3). A concentration of ligand of 0.00001% was routinely used for all measurements. […] All measurements were therefore carried out at a standard excitation wavelength of 370 nm, and a constant slit width of 3 mm.
# Further investigations into the relationship between aggregation-dependent tau ligands and tau aggregation inhibitors were carried out using primulin. Primulin in solution has a fluorescence peak at 520 nm. This shifts to 470 nm when primulin is bound within a pure preparation of PHFs (FIG. 6). […] Therefore, binding by such compounds is dependent on the polymerised state of tau found in the PHF, but is not present in free tau.
# Compounds have been identified which disrupt the structure of the PHF and reverse the proteolytic stability of the PHF core (see WO 96/30766). Examples of such compounds are shown in accompanying FIG. 8. The present inventors have now identified that these compounds bind to tau at a specific binding site within the high affinity tau-tau binding domain.
# neurofibrillary tangles = test: Fluorescence labelling of tangles (sections, ifI tangle suspensions); assay type: binding, human
# Protocol: as §1
# Serial 16 μm sections are cut from the hippocampus of a case dying with clinically and neuropathologically confirmed AD. […]
# A Leitz fluorescence microscope fitted with a photo-multiplyer tube (Model MPV-2) was used to quantitate fluorescence emission. […]
# T1 sequence (P10636 614-708 limits assumed): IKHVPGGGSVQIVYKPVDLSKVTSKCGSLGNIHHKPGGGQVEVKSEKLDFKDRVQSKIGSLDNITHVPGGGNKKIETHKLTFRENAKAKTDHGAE
compound,measurement,setting,value
2-(4-amino phenyl)-6-methyl-1-sulphonate benzothiazole [compound 2],displaced from tangles by primulin (SB-ligand),tangle fragments,displaced from NFTs; also recorded: displace this from tangles
same,displaced from amyloid by primulin,amyloid,not amyloid
same,labelling / staining of amyloid,amyloid,bind preferentially to amyloid
"Cc1cc(=[N+](C)C)cc2sc3cc(N(C)C)cc(C)c3nc1-2.[Cl-] [DMMB, dimethyl methylene blue]",inhibitory potency in Preparation 2 compared with Preparation 1,tau-tau binding,higher inhibitory potency in Preparation 2 than in Preparation 1
same,tau-tau binding relative to that seen in the absence of DMMB,tau-tau binding; DMMB 5 μM,23%
same,tau-tau binding relative to that seen in the absence of DMMB,tau-tau binding; DMMB 15 μM,17%
O=C(O)CCCC[C@@H]1SC[C@@H]2NC(=O)N[C@@H]21 [biotin],immunogold anti-biotin labelling of isolated PHFs after pre-incubation,isolated PHFs,no labelling
CC1=CC(=O)OC1=O [citraconic anhydride],effect on PHF-bound primulin fluorescence peak,PHFs,disrupting the orderly structure of PHFs and releasing free tau and free unbound primulin; also recorded: abolish the 470 nm fluorescence peak
Cc1ccc2sc(-c3ccc(N=Nc4ccccc4O)cc3)nc2c1S(=O)(=O)[O-].[Na+] [compound 4a],activity as ligand,tangle fragments,active ligands
same,competition with / displacement of other ligands at tangles,tangle fragments,compete out thiazin red and primulin fluorescence at equivalent concentrations
Cc1ccc2sc(-c3ccc(N=Nc4cc(CCC(=O)ON5C(=O)CCC5=O)ccc4O)cc3)nc2c1S(=O)(=O)[O-].[Na+] [compound 4b],competition with / displacement of other ligands at tangles,tangle fragments,compete primulin and thiazin red
same,immunogold anti-biotin labelling of isolated PHFs after pre-incubation,isolated PHFs,binds to the proteolytically stable PHF structure; also recorded: label isolated PHFs
Cc1ccc2sc(-c3ccc(N=NNc4ccc(-c5nc6c(S(=O)(=O)[O-])c(C)ccc6s5)cc4)cc3)nc2c1S(=O)(=O)[O-].[Na+].[Na+] [thiazin yellow],activity as ligand,tangle fragments,inactive as a ligand; also recorded: does not serve as an effective ligand
same,competition with / displacement of other ligands at tangles,tangle fragments,did not
Cc1ccc2c(c1)sc(-c1ccc(N(C)C)cc1)[n+]2C.[Cl-] [thioflavin-T],labelling of tangles,neurofibrillary tangles,barely visible tangle; also recorded: much less effective
same,displaced from tangles by primulin (SB-ligand),tangle fragments,displaced by yellow tangle fluorescence produced by primulin; also recorded: can be displaced from tangles by primulin
same,displaced from tangles by primulin (SB-ligand),tangle fragments; listed as 1b,displaced from NFTs
same,displaced from tangles by primulin (SB-ligand),tangle fragments; listed as compound 1b,displace compound 1b at tangles
same,labelling / staining of amyloid,amyloid,labelled amyloid preferentially; also recorded: strongly stain amyloid deposits
same,labelling / staining of amyloid,amyloid; listed as 1b,bind preferentially to amyloid
alcian blue,effect on PHF-bound primulin fluorescence peak,PHFs,no disturbance of the characteristic bound primulin fluorescence peak; also recorded: retention of the fluorescence peak of primulin at 470 nm
